The nature of one series: Toxicity in mice. It counts as in vivo. The conditions noted are these: mouse, in vivo.
The target in a further series is T1, aldose reductase (Bos taurus, UniProt P16116).
T1 construct: The enzyme is extracted from beef crystalline lens; from tissue; host or cells: beef crystalline lens
The experiment in a line: Inhibition of aldose reductase in vitro (reduction of glyceraldehyde to glycerol, spectrophotometric NADPH determination). Type of series: biochemical. To be noted: enzyme from beef crystalline lens; substrate glyceraldehyde; read-out: log 1/CI50 (CI50 = concentration in mole/l resulting in 50% inhibition of the enzymatic activity) (converted). Here is the method: The enzyme is extracted from beef crystalline lens by the method described by Hayman S. and Kinoshita J. H. (J. Biol Chem., 1965, 240, 2,877). The percentage of inhibition of the capacity of the enzyme to reduce glyceraldehyde to glycerol under the effect of the product to be tested is determined by the spectrophotometric determination of the amount of NADPH reacting according to the method described by Hayman and Kinoshita. We give below in parentheses after each product the value of the log 1/CI50 where CI50 represents the concentration expressed in mole/l resulting in 50% inhibition of the enzymatic activity: COR 19 85 (4.9); COR 19 91 (5.5); COR 19 93 (5.1); COR 19 94 (5.2); COR 19 99 (5.4); COR 35 01 (6.9); COR 35 02 (5.15); COR 35 07 (6.3); COR 35 09 (5.7); COR 35 11 (5.9); COR 35 19 (5.8); COR 35 22 (5.2).

The test system of another series is mice. The series is described as follows: Toxicity in mice. Type of series: in vivo. The conditions noted are these: for LD0: orally.
Series [1] has as its system rats. The experiment in a line: Neuropathy with streptozotocin: sorbitol and inositol levels in sciatic nerves, glycemia. It counts as in vivo. To be noted: 100 mg/kg/d. Here is the method: Four batches of 10 rats weighing about 200 g were treated from D-2 to D+3 with a gummy julep of the product to be tested. On D O the animals received an i.p. injection of 100 mg/kg of streptozotocin dissolved in a citrate buffer. The glycemia of the rats was determined 24 hours and 3 days after injection of the streptozotocin and the sciatic nerves were removed to determine the sorbitol and inositol levels. […] COR 35 01 had no effect on the glycemia of the animals.

Series [2] concerns rats. The series is described as follows: Diuretic activity, method of Lipschitz et coll. To be noted: oral administration of 20 mg/kg. Type of series: in vivo. Here is the method: Besides their advantage in curative and preventive therapy of complications from diabetes, the products, which are the object of this invention, are also useful as diuretics. Thus, product COR35 07, tested in rats according to the method of Lipschitz et coll.(J. Pharm. Exp. Therap., 1943, 79, 97-110), results in an increase in urinary excretion of sodium (natruria was multiplied by 2.6 after oral administration of 20 mg/kg).

For series [3], the system named is rats. The series is described as follows: Galactose cataracts: degree of cataract marked 0 to 3 by ophthalmoscope. It counts as in vivo. The conditions noted are these: 20% galactose diet, 100 mg/kg d. Here is the method:
Rats, 14 days old, were kept in a cage of 11 with a mother for 3 days. From the 4th to the 9th day, the animals received the product to be tested or the reference product. At the end of pretreatment, the mothers were removed. Two out of the 11 animals were eliminated to obtain batches of homogenous weight. The selected rats were divided 3 by 3 into cages at random, and the diet containing 20% galactose was put in place. […] The degree of cataract was evaluated by a marking system from 0 to 3.
The marks given to the treated animals were compared with those of the control animals by the Mann and Whitney U test (D. Schwartz, "Statistical Methods for the Use of Physicians and Biologists," Ed. Flammarion, Paris, 1963).

Structures can show the parent of a compound that is named as a salt.

For the molecule `CCCc1c(-c2ccc(C(=O)OC)cc2)oc2cc(NC(=O)CN3CCOCC3)ccc2c1=O` [COR35 17, methyl 7-(morpholinoacetamido)-3-propyl-4'-flavonecarboxylate], the mortality in “Toxicity in mice” (oral administration of 1000 mg/kg) came out at 10%.

Turning to `CC(=O)Nc1ccc2c(=O)cc(-c3ccc(C(=O)O)cc3)oc2c1` [COR 19 85, 7-acetamido-4'-flavonecarboxylic acid], the IC50 at aldose reductase is 12.6 µM.

Take `CCCc1c(-c2ccc(C(=O)O)cc2)oc2cc(NC(C)=O)ccc2c1=O` [COR 19 91, 7-acetamido-3-propyl-4'-flavonecarboxylic acid]: the LD0 entry in the series on mice was “more than 2000 mg/kg”. The IC50 at aldose reductase was 3.16 µM.

Consider `CCc1c(-c2ccc(C(=O)O)cc2)oc2cc(NC(C)=O)ccc2c1=O` [COR 19 93, 7-acetamido-3-ethyl-4'-flavonecarboxylic acid], for which the IC50 at aldose reductase is 7.94 µM.

For the molecule `CC(=O)Nc1ccc2c(=O)c(OC(C)=O)c(-c3ccc(C(=O)O)cc3)oc2c1` [COR 19 94, 7-Acetamido-3-acetoxy-4'-flavonecarboxylic acid], the LD0 entry in the series with mice is “more than 2000 mg/kg”. For the same molecule, at aldose reductase, the IC50 was 6.31 µM.

Turning to `CCCc1c(-c2ccc(C(=O)OC)cc2)oc2cc(NS(C)(=O)=O)ccc2c1=O` [COR 19 99, methyl 7-methanesulfonamido-3-propyl-4'-flavonecarboxylate], on aldose reductase, the IC50 was 3.98 µM.

With `CCCc1c(-c2ccc(C(=O)O)cc2)oc2cc(NS(C)(=O)=O)ccc2c1=O` [COR 35 01, 7-methanesulfonamido-3-propyl-4'-flavonecarboxylic acid], the “sorbitol level in the sciatic nerves” value with rats [1] (D-2 to D+3, control 0.983±0.334) was found to be 0.426 ± 0.171 mg/kg. Moreover, the “inositol level in the sciatic nerves” value in the series on rats [1] (D-2 to D+3, control 1.6555±0.372) came out at 1.184 ± 0.340 mg/kg. Moreover, the mortality is 20% in “Toxicity in mice” (ip, intraperitoneally, 500 mg/kg) and “did not cause any mortality” with mice (intraperitoneally, 250 mg/kg). The LD0 result in the series with mice is on record as “more than 2000 mg/kg”. Besides, the IC50 at aldose reductase is 0.126 µM.

In the case of `CCCc1c(-c2ccc(C(=O)O)cc2)oc2cc(NC(=O)CN3CCOCC3)ccc2c1=O` [COR 35 02, 7-morpholinoacetamido-3-propyl-4'-flavonecarboxylic acid hydrochloride], at aldose reductase, the IC50 was 7.08 µM.

As to `COC(=O)c1ccc(-c2oc3cc(NS(C)(=O)=O)ccc3c(=O)c2OS(C)(=O)=O)cc1` [COR 35 07, methyl 7-methanesulfonamido-3-methanesulfonyloxy-4'-flavonecarboxylate], on aldose reductase, the IC50 was 0.501 µM. Further, the “natruria multiplied by (increase in urinary excretion of sodium)” value with rats [2] is reported as 2.6.

Regarding `CCCc1c(-c2ccc(C(=O)O)cc2)oc2cc(S(=O)(=O)N(C)C)ccc2c1=O` [COR 35 09, N,N-7-dimethylsulfamoyl-3-propyl-4'-flavonecarboxylic acid], on aldose reductase, the IC50 is 2 µM. In addition, the “galactose cataract average index D + 1” value with rats [3] (D+1, marks 0 to 3) is reported as 0.0. In the series on rats [3] (D+2, marks 0 to 3), the “galactose cataract average index D + 2” value turned out to be 0.0. Besides, in the series on rats [3] (D+3, marks 0 to 3), the “galactose cataract average index D + 3” value was determined as 0.031. The “galactose cataract average index D + 4” value in the series with rats [3] (D+4, marks 0 to 3, S) was found to be 0.47. In addition, the “galactose cataract average index D + 5” value in the series on rats [3] (D+5, marks 0 to 3, S) is on record as 0.97. Also, the “galactose cataract average index D + 6” value with rats [3] (D+6, marks 0 to 3, S) was determined as 1.44. Also, the “galactose cataract average index D + 7” value with rats [3] (D+7, marks 0 to 3, S) came out at 1.69. Besides, in the series on rats [3] (D+8, marks 0 to 3, S), the “galactose cataract average index D + 8” value was 1.81. In addition, the “galactose cataract average index D + 9” value in the series with rats [3] (D+9, marks 0 to 3, S) is 2.06. The “galactose cataract average index D + 10” value with rats [3] (D+10, marks 0 to 3, S) is on record as 1.88. Further, the “galactose cataract average index D + 11” value in the series with rats [3] (D+11, marks 0 to 3, S) worked out at 1.69. Besides, the “galactose cataract average index D + 12” value in the series on rats [3] (D+12, marks 0 to 3, S) stood at 1.81. Further, the “galactose cataract average index D + 13” value with rats [3] (D+13, marks 0 to 3, S) turned out to be 1.50.

For `CCCc1c(-c2ccc(C(=O)O)cc2)oc2cc(S(=O)(=O)NC)ccc2c1=O` [COR 35 11, N-7-methylsulfamoyl-3-propyl-4'-flavonecarboxylic acid], the IC50 on aldose reductase is 1.26 µM.

Regarding `CCCc1c(-c2ccc(C(=O)O)cc2)oc2cc(S(=O)(=O)N(C)CCO)ccc2c1=O` [COR 35 19, 7-(N-hydroxyethyl N-methylsulfamoyl)-3-propyl-4'-flavonecarboxylic acid], the IC50 at aldose reductase was 1.58 µM.

In the case of `CCCc1c(-c2ccc(C(=O)O)cc2)oc2cc(S(N)(=O)=O)ccc2c1=O` [COR 35 22, 7-sulfamoyl-3-propyl-4'-flavonecarboxylic acid], the IC50 at aldose reductase was 6.31 µM.

For the origin of these results see patent publication US4600788A, “4'-flavonecarboxylic acids and pharmaceutically acceptable derivatives their preparation, and their application” (Societe Cortial, S.A., priority 1983, dated 1986).
